Source: patent publication US7157083B2, “Compositions and methods for treating retroviral infections” (priority 1998, dated 2007)
Like-named read-outs stand apart in the source and are kept apart here.

How the values were obtained:
[1] = test system: clinical isolate ROJO (low passage HIV-1) in human PBMCs; assay: Study 1 PBMC assay: reverse transcriptase activity after ROJO infection (Treatments A, B, C); assay type: cell-based
Description: Percent virus control (% VC) in the following tables is the mean RT activity (cpm) as a percentage of a virus control. Percent cell control (% CC) is the mean XTT absorbance as a percentage of a cell control.
Peripheral blood monocular cells (PBMCs) are obtained from normal hepatitis and HIV-1 negative donors by ficoll hypaque gradient separation. Briefly, anti-coagulated blood is diluted 1:1 with Dulbecco's phosphate buffered saline without Ca^++ and Mg^++ (PBS) and layered over 14 mL of Lymphocyte separation media in a 50 ml centrifuge tube. Tubes are then centrifuged for 30 minutes at 600× g. Banded PBLs are gently aspirated from the resulting interface and subsequently washed 2× with PBS by low speed centrifugation. The mononuclear cells are counted, viability determined by Trypan Blue dye exclusion and resuspended in RPM1640 medium supplemented with 15% FBS (heat inactivated), 2 mM L-glutamine, 100 U/mL penicillin, 100 μg/mL streptomycin, and 10 μg/mL gentamycin with 2 μg/mL phytohemagluttin (PHA) at 1×10^6 cells/mL. The cells are cultured for 48 to 72 h at 37° C., 5% CO2 Following incubation, cells are collected by centrifugation, washed and resuspended in RPMI 1640 supplemented with 15% FBS (heat inactivated), 2 Mm L-glutamine, 100 U/mL penicillin, 100 μg/mL streptomycin, and 10 μg/mL gentamycin with 20 U/mL recombinant IL-2 (R & D Systems, Minneapolis, Minn.). IL-2 is included in the culture medium to maintain the cell division initiated by the PHA mitogenic stimulation. The cultures are then maintained until use by ½ culture volume change with fresh IL-2 containing medium every 3 days.
Human peripheral blood mononuclear cells from a minimum of 2 donors, that have been blasted with PHA and IL-2, are counted, viability determined by Trypan Blue dye exclusion and mixed in equal ratios. Pooled donors are used to minimize the variability observed between individual donors which results from quantitative and qualitative differences in HIV infection and overall response to the PHA and IL-2 of primary lymphocyte populations. The cells are resuspended at 1×10^6 cells/mL in RPMI 1640 without phenol red supplemented with 15% Fetal Bovine Serum (heat inactivated), 2 mM L-glutamine, 100 U/mL penicillin, 100 μg/mL streptomycin, 10 μg/mL gentamycin and IL-2 (20 U/mL, R&D Systems, Minneapolis, Minn.). Fifty microliters of cells are then distributed to the inner 60 wells of a 96 well round bottom Microtiter culture plate in a standard format developed by the Infectious Disease Research department of Southern Research Institute. Each plate contains cell control wells (cells only), virus control wells (cell plus virus), and experimental wells (drug plus cells plus virus).
Using an in-house computer program, IC50 (50% inhibition of virus replication), TC50 (50% reduction in cell viability) and a therapeutic index (TI, […]) were determined. AZT was used as a relevant positive control compound for the individual assays.
This study compares the ability of hyaluronidase to AZT to lower viral replication as measured by reverse transcriptase levels. RT was measured on days 7, 14, and 21. Three different treatment regimens were used in the comparative study (Treatments A, B and C).
Treatment A. Normal mixed PHA blasted human PBMCs (5×10e4/well) were pretreated with drug every 48 hours for 3 doses. On day 6 of pretreatment, cells were infected with clinical isolate ROJO. 48 hours post infection, treatment with drugs continued for an additional 3 treatments. Samples for assay were collected on D7 (day 7), 14, 21, post infection, frozen and later analyzed for reverse transcriptase.
Treatment B. Normal mixed PHA blasted human PBMCs (as above) were plated in 96 wells and allowed to incubate for 48 hours (cells were set at same time as treatment A from same pool). Drug pretreatment started on day 2 and was repeated on day 4. On day 6, cell were infected as in treatment A, with concurrent addition of drug for a total of 3 treatments. […]

HIV-1 = conditions: Assay #5
Description: Reverse transcriptase (RT) activity was measured in cell-free supernatants. Tritiated thymidine triphosphate (NEN) (TTP) was resuspended in distilled H2O at 5 Cl/mL. Poly rA and oligo dT were prepared as a stock solution which was kept at −20° C. The RT reaction buffer was prepared fresh on a daily basis and consists of 125 μL 1.0 M EGTA, 125 μL d H2O, 110 μL 10% SDS, 50 μL 1.0 M Tris (pH 7.4), 50 μL 1.0 M DTT, and 40μ1.0 M MgCl2. These three solutions were mixed together in a ratio of 2 parts TTP, 1 part poly rA:oligo dT, and 1 part reaction buffer. Ten microliters of this reaction mixture was placed in a round bottom microtiter plate and 15 μL of virus containing supernatant was added and mixed. The plate was incubated at 37° C. in a water bath with a solid support to prevent submersion of the plate and incubated for 60 minutes. Following reaction, the reaction volume was spotted onto pieces of DE81 paper, washed 5 times for 5 minutes each in a 5% sodium phosphate buffer, 2 times for 1 minute each in distilled water, 2 times for 1 minute each in 70% ethanol, and then dried. Opti-Fluor O was added to each sample and incorporated radioactivity was quantitated utilizing a Wallace 1450 Microbetaplus liquid scintillation counter.
Control groups were not treated with the enzyme.

## Hyaluronidase
[1]; Treatment A, 0.00165 units/mL, Day 7
  RT activity % VC: 131.1%
[1]; Treatment A, 0.00165 units/mL, Day 14
  RT activity % VC: 21.6%
[1]; Treatment A, 0.00165 units/mL, Day 21
  RT activity % VC: 24.4%
[1]; Treatment A, 0.00515 units/mL, Day 7
  RT activity % VC: 49.5%
[1]; Treatment A, 0.00515 units/mL, Day 14
  RT activity % VC: 14.9%
[1]; Treatment A, 0.00515 units/mL, Day 21
  RT activity % VC: 5.1%
[1]; Treatment A, 0.01611 units/mL, Day 7
  RT activity % VC: 1.1%
[1]; Treatment A, 0.01611 units/mL, Day 14
  RT activity % VC: 0.1%
[1]; Treatment A, 0.01611 units/mL, Day 21
  RT activity % VC: 0.6%
[1]; Treatment A, 0.05033 units/mL, Day 7
  RT activity % VC: 1.0%
[1]; Treatment A, 0.05033 units/mL, Day 14
  RT activity % VC: 0.4%
[1]; Treatment A, 0.05033 units/mL, Day 21
  RT activity % VC: 0.9%
[1]; Treatment A, 0.15729 units/mL, Day 7
  RT activity % VC: 0.7%
[1]; Treatment A, 0.15729 units/mL, Day 14
  RT activity % VC: 0.2%
[1]; Treatment A, 0.15729 units/mL, Day 21
  RT activity % VC: 0.7%
[1]; Treatment A, 0.49152 units/mL, Day 7
  RT activity % VC: 1.0%
[1]; Treatment A, 0.49152 units/mL, Day 14
  RT activity % VC: 0.3%
[1]; Treatment A, 0.49152 units/mL, Day 21
  RT activity % VC: 0.4%
[1]; Treatment A, 1.536 units/mL, Day 7
  RT activity % VC: 1.6%
[1]; Treatment A, 1.536 units/mL, Day 14
  RT activity % VC: 0.2%
[1]; Treatment A, 1.536 units/mL, Day 21
  RT activity % VC: 1.2%
[1]; Treatment A, 4.8 units/mL, Day 7
  RT activity % VC: 1.1%
[1]; Treatment A, 4.8 units/mL, Day 14
  RT activity % VC: 0.3%
[1]; Treatment A, 4.8 units/mL, Day 21
  RT activity % VC: 1.0%
[1]; Treatment A, 15 units/mL, Day 7
  RT activity % VC: 1.1%
[1]; Treatment A, 15 units/mL, Day 14
  RT activity % VC: 0.7%
[1]; Treatment A, 15 units/mL, Day 21
  RT activity % VC: 1.1%
[1]; Treatment B, 0.00165 units/mL, Day 7
  RT activity % VC: 47.1%
[1]; Treatment B, 0.00165 units/mL, Day 14
  RT activity % VC: 10.5%
[1]; Treatment B, 0.00165 units/mL, Day 21
  RT activity % VC: 5.1%
[1]; Treatment B, 0.00515 units/mL, Day 7
  RT activity % VC: 6.0%
[1]; Treatment B, 0.00515 units/mL, Day 14
  RT activity % VC: 1.0%
[1]; Treatment B, 0.00515 units/mL, Day 21
  RT activity % VC: 0.8%
[1]; Treatment B, 0.01611 units/mL, Day 7
  RT activity % VC: 3.6%
[1]; Treatment B, 0.01611 units/mL, Day 14
  RT activity % VC: 0.6%
[1]; Treatment B, 0.01611 units/mL, Day 21
  RT activity % VC: 0.2%
[1]; Treatment B, 0.05033 units/mL, Day 7
  RT activity % VC: 3.0%
[1]; Treatment B, 0.05033 units/mL, Day 14
  RT activity % VC: 0.4%
[1]; Treatment B, 0.05033 units/mL, Day 21
  RT activity % VC: 0.9%
[1]; Treatment B, 0.15729 units/mL, Day 7
  RT activity % VC: 2.8%
[1]; Treatment B, 0.15729 units/mL, Day 14
  RT activity % VC: 0.4%
[1]; Treatment B, 0.15729 units/mL, Day 21
  RT activity % VC: 0.5%
[1]; Treatment B, 0.49152 units/mL, Day 7
  RT activity % VC: 4.9%
[1]; Treatment B, 0.49152 units/mL, Day 14
  RT activity % VC: 0.4%
[1]; Treatment B, 0.49152 units/mL, Day 21
  RT activity % VC: 0.3%
[1]; Treatment B, 1.536 units/mL, Day 7
  RT activity % VC: 4.1%
[1]; Treatment B, 1.536 units/mL, Day 14
  RT activity % VC: 0.2%
[1]; Treatment B, 1.536 units/mL, Day 21
  RT activity % VC: 0.4%
[1]; Treatment B, 4.8 units/mL, Day 7
  RT activity % VC: 1.9%
[1]; Treatment B, 4.8 units/mL, Day 14
  RT activity % VC: 0.5%
[1]; Treatment B, 4.8 units/mL, Day 21
  RT activity % VC: 1.2%
[1]; Treatment B, 15 units/mL, Day 7
  RT activity % VC: 3.4%
[1]; Treatment B, 15 units/mL, Day 14
  RT activity % VC: 0.5%
[1]; Treatment B, 15 units/mL, Day 21
  RT activity % VC: 0.7%
[1]; Treatment C, 0.00165 units/mL, Day 7
  RT activity % VC: 104.0%
[1]; Treatment C, 0.00165 units/mL, Day 14
  RT activity % VC: 42.4%
[1]; Treatment C, 0.00165 units/mL, Day 21
  RT activity % VC: 23.5%
[1]; Treatment C, 0.00515 units/mL, Day 7
  RT activity % VC: 100.4%
[1]; Treatment C, 0.00515 units/mL, Day 14
  RT activity % VC: 26.0%
[1]; Treatment C, 0.00515 units/mL, Day 21
  RT activity % VC: 13.2%
[1]; Treatment C, 0.01611 units/mL, Day 7
  RT activity % VC: 3.9%
[1]; Treatment C, 0.01611 units/mL, Day 14
  RT activity % VC: 1.8%
[1]; Treatment C, 0.01611 units/mL, Day 21
  RT activity % VC: 1.0%
[1]; Treatment C, 0.05033 units/mL, Day 7
  RT activity % VC: 3.4%
[1]; Treatment C, 0.05033 units/mL, Day 14
  RT activity % VC: 0.4%
[1]; Treatment C, 0.05033 units/mL, Day 21
  RT activity % VC: 0.6%
[1]; Treatment C, 0.15729 units/mL, Day 7
  RT activity % VC: 3.0%
[1]; Treatment C, 0.15729 units/mL, Day 14
  RT activity % VC: 0.2%
[1]; Treatment C, 0.15729 units/mL, Day 21
  RT activity % VC: 0.8%
[1]; Treatment C, 0.49152 units/mL, Day 7
  RT activity % VC: 4.1%
[1]; Treatment C, 0.49152 units/mL, Day 14
  RT activity % VC: 0.2%
[1]; Treatment C, 0.49152 units/mL, Day 21
  RT activity % VC: 0.4%
[1]; Treatment C, 1.536 units/mL, Day 7
  RT activity % VC: 2.7%
[1]; Treatment C, 1.536 units/mL, Day 14
  RT activity % VC: 0.4%
[1]; Treatment C, 1.536 units/mL, Day 21
  RT activity % VC: 0.6%
[1]; Treatment C, 4.8 units/mL, Day 7
  RT activity % VC: 4.6%
[1]; Treatment C, 4.8 units/mL, Day 14
  RT activity % VC: 0.4%
[1]; Treatment C, 4.8 units/mL, Day 21
  RT activity % VC: 0.7%
[1]; Treatment C, 15 units/mL, Day 7
  RT activity % VC: 3.2%
[1]; Treatment C, 15 units/mL, Day 14
  RT activity % VC: 0.6%
[1]; Treatment C, 15 units/mL, Day 21
  RT activity % VC: 0.7%
[1]; Treatments A, B and C, days 7, 14, and 21
  reduction in viral replication as measured by reverse transcriptase, compared to AZT: greater reduction in viral replication
HIV-1; 5 mg/mL
  % Control: 65.1%
  Mean RT: 12442.7 cpm
HIV-1; 10 mg/mL
  % Control: 58.3%
  Mean RT: 11156.3 cpm
HIV-1; 20 mg/mL
  % Control: 18.5%
HIV-1; Sum over 20, 10, 5 mg/mL
  % Control, Sum: 141.9%
  Mean RT, Sum: 23599 cpm
